This is an account of results in article PMC9610897, “Cationic Perylene Antivirals with Aqueous Solubility for Studies In Vivo” (Pharmaceuticals, 2022).

The nature of data set [1]: Solubility in water (photometry). In kind it is physicochemical. As for the experimental part:
The samples were dissolved in DMSO, diluted in series, and photometrically analyzed. The average molar absorption coefficient was calculated from the obtained optical densities of calibration solutions at the absorption maxima. Solubility values were determined as previously described by adding weighed amounts of compounds to distilled water followed by sonication (30 min), centrifugation (12,000 rpm, 10 min), and photometry.

A further data set deals with CHIKV. The data set is described as follows: CHIKV cytopathic effect (CPE) inhibition test. In kind it is cell-based, Chikungunya virus (CHIKV, strain Nic). The note with it: Chikungunya virus, 120 h; CPE inhibition in Vero cells, 5 days, M ± SD; read-out: Antiviral Activity, EC50 ± SD, CHIKV. Background: Protection from cytopathic effect is a common read-out in antiviral testing.

A further data set concerns SARS-CoV-2. Briefly: SARS-CoV-2 cytopathic effect (CPE) inhibition test. In kind it is cell-based, strain PIK35. The note with it: Severe acute respiratory syndrome coronavirus 2, 120 h; CPE inhibition in Vero cells, 5 days, M ± SD; read-out: Antiviral Activity, EC50 ± SD, SARS-CoV-2. The text has this: (§1) The green monkey kidney (Vero) cell line originated from WHO Biologicals, Switzerland (10–87), and the Madin-Darby canine kidney (MDCK) cell line was obtained from the American Type Culture Collection (ATCC CCL-34).
(§2) Viruses and strains used in the present work were severe acute respiratory syndrome-related coronavirus 2 (SARS-CoV-2, strain PIK35, GISAID EPI_ISL_428852), Chikungunya virus (CHIKV, strain Nic, GenBank IDs MN271691-2) and influenza A virus (H1N1, strain A/PR/8/34, ATCC VR-95).
The procedure was described previously. In brief, two-fold dilutions of the compounds were prepared in Dulbecco MEM (Chumakov FSC R&D IBP RAS, Russia) and mixed 1:1 with a virus suspension containing 50–200 TCID50 and incubated for 1 h at 37 °C in a CO2 incubator. The final concentration series started from 100 μM. Then, compound-virus mixtures were added to confluent Vero cell monolayers in 2 replicates. After incubation at 37 °C in a CO2-incubator for 5 days, CPE signs (cell death) were assessed via microscope, and 50% effective concentration (EC50) (compound concentration required to decrease CPE by 50%) was calculated using the Karber method.

A short description of the next data set: in vitro. The note with it: bovine, 80% FBS in 0.05 M PBS pH 7.4, 37 °C, read-out: In vitro FBS half-life (t1/2). In kind it is in vitro ADME. As for the experimental part: In vitro stability of 10 was studied in Gibco FBS (Thermo-Fisher Scientific, USA) by following the reported procedure with minor modifications. A 10 mM solution of the compound in DMSO (20 μL) was added to 80% FBS in 0.05 M PBS (pH 7.4) at 37 °C to yield the final concentration of 200 μM. The assays were carried out in triplicate in a water bath at 37 °C. Samples (100 μL) were taken at 0, 15, 30, 45, 60, 90, 120, 180, 240, and 300 min and added to 400 μL acetonitrile in order to deproteinize the plasma. The samples were then shaken for 1 min and centrifuged at 37 °C at 15,000 rpm for 5 min. The supernatants were analyzed by HPLC (detection at 530 nm). AUC values were determined and averaged from three independent experiments. In vitro serum half-life (t1/2) was calculated using the equation t1/2 = 0.693/b, where b is the slope found by linear fitting of the negative natural logarithm of the fraction remaining (AUC0-300/AUC0) vs. incubation time.

Data set [2] deals with influenza A/California/7/09/MA virus. In kind it is in vivo, BALB/c mice. The note with it: for Average Life Expectancy (M ± SEM): BALB/c mice.
Data set [3] in a line: Cell viability assay in Vero cells (resazurin). In kind it is cell-based. The conditions noted are these: green monkey, 5 d, read-out: Cytotoxicity, CC50 ± SD, Vero. As for the experimental part: as §1
Two-fold dilutions of the compounds (starting from 100 μM) were prepared in DMEM (Chumakov FSC R&D IBP RAS, Russia) and added to confluent cell monolayers. After 5 days of incubation (37 °C, 5% CO2), the cultural supernatant was substituted with a resazurin solution (25 μg/mL), followed by 4 h incubation (37 °C, 5% CO2). Then, 20 µL of 10% SDS were added to stop the reaction. Fluorescence intensity was measured with Promega GloMax-Multi Detection System (Ex525/Em580–640). Cells treated with dilutions of the compounds and DMSO, but not resazurin, were used to subtract the background fluorescence. All experimental procedures were performed in two replicates. Fluorescence curves were analyzed with Microsoft Excel 2013. 50% Cytotoxic concentrations (CC50) were calculated.

The nature of data set [4]: Stability in stomach acid-mimicking 0.16 M aqueous HCl (TLC). In kind it is physicochemical. As for the experimental part: Since in vivo evaluation of the leader compound in mouse model involves intragastric administration, stability in stomach acid-mimicking 0.16 M aqueous HCl was assessed. The compound was stable, with slight signs of decomposition as determined by thin-layer chromatography (TLC) for at least 4 h, which exceeds the average residence time of drugs in the stomach. Then, stability in fetal bovine serum (FBS) was evaluated.

The next data set has as its system IAV. Briefly: IAV virus yield reduction assay. The note with it: Influenza A virus; virus yield reduction in MDCK cells, MOI 1, 24 h, M ± SD; read-out: Antiviral Activity, EC50 ± SD, IAV. In kind it is cell-based, influenza A virus (H1N1, strain A/PR/8/34).
Description: as §1, §2
Compound solutions were prepared in DMSO (20 mg/mL). The compounds were weighed in 2 mg amounts and dissolved in 100 μL of DMSO. Then, a series of 3-fold dilutions was prepared, starting from 300 µg/mL, in a cultural medium. The MDCK cell monolayer was treated with compound dilutions and incubated for 1 h in a CO2 incubator at 37 °C. Untreated cells were used as negative control. Afterward, the virus was added (MOI 1), and cells were incubated for 24 h at 37 °C in a CO2 incubator. After incubation, the culture medium was collected, and viral yields were determined by titration. In brief, a series of 10-fold dilutions (10^−7–10^−1) of viral supernatants were prepared in a cultural medium and applied to daily MDCK cell monolayers. Infected cells were incubated for 72 h at 37 °C in a CO2 incubator. The presence of the virus in the culture supernatants was determined using the hemagglutination assay with a 1% suspension of chicken erythrocytes. Viral titer was calculated according to the Reed-and-Muench method and was expressed as 50% tissue infectious doses (TID50) per 100 μL of volume. Inhibition (%) was calculated by comparison with non-treated cells, and EC50 was calculated from inhibitory curves.

Data set [5] can be described thus: Cell viability assay in MDCK cells (MTT). In kind it is cell-based, canine. The note with it: dog, read-out: Cytotoxicity, CC50 ± SD, MDCK. As for the experimental part:
as §1
Compound solutions were prepared in DMSO (20 mg/mL), and then 2-fold dilutions in cultural medium were prepared starting from 1000 μg/mL. One-day MDCK cell monolayers (over 95% confluency) in 96-well plates ([…]) were washed twice with serum-free alpha-MEM (Thermo-Fisher Scientific, USA) and treated with 100 μL of compound dilutions in 2 replicates. The plates were then incubated for 24 h at 37 °C in a CO2 incubator. Cell viability was assessed using the tetrazolium test (MTT, ApplyChem). Optical density was measured on a Wallac 1420 Victor2 microplate reader (Perkin Elmer, Ramsey, MN, USA) at 535 nm, then CC50 values were calculated.

Like-named read-outs stand apart in the source and are kept apart here.

For `C[n+]1c(C=Cc2ccc3c4cccc5cccc(c6cccc2c63)c54)sc2ccccc21.[Cl-]` [Compound 10, 3-Methyl-2-(2-(perylen-3-yl)vinyl)benzo[d]thiazol-3-ium chloride], in data set [1], the “Solubility in water (in words)” value is “substantial solubility”. In addition, the solubility (usually how much of the substance goes into solution per volume) at 30 min in [1] (thermodynamic from solid, distilled water, sonication, centrifugation, photometry) was found to be 11 mM. Further, the EC50 (commonly the concentration needed to bring the measured effect to its halfway point) in the data set on CHIKV was determined as 0.99 ± 0.15 µM; in the data set with SARS-CoV-2, 1.45 ± 0.95 µM; with IAV it was 22.7 ± 10 µM. Further, the half-life at 200 μM in the data set “in vitro” worked out at 2.78 h. The entries for the “Average Life Expectancy (M ± SEM)” value in [2] (0.5 mg/kg intragastric) and in data set [2] (4.5 mg/kg intragastric) were 8.6 ± 1.0 days and 8.6 ± 1.2 days, respectively. Besides, the “Protective Index (PI)” value in data set [2] (0.5 mg/kg intragastric) is listed as 11%; in data set [2] (4.5 mg/kg intragastric) it was 22%. The “Weight loss (maximum)” value in data set [2] (mouse, in vivo) is recorded as “up to 21.3%”. The CC50 – broadly, the concentration that lowers cell viability or growth by half – at 5 days in [3] was > 100 µM. The “Stability in 0.16 M aqueous HCl, time stable with slight signs of decomposition” value in data set [4] is given as “at least 4 h”. For the same compound, in data set [5], the CC50 at 24 h was found to be 69 ± 27 µM.
